Where two headings read alike, the source gives them in different places.
Legend:
PKA = test: Kinase inhibition under standard conditions, PKA; format: biochemical
SK-MEL-5 xenograft = test: Mouse xenograft model SK-MEL-5; format: in vivo; conditions: Melanoma, Raf/CDKN2A; oral twice daily dosing
Protocol: (§1) The efficacy of the compound of the formula 1 was confirmed in mouse tumor xenograft models, employing the NMRI(nu/nu) strain of mice. For example, cells from the human tumor cell lines MDA-MB-231, U373, and HT29 were pre-incubated subcutaneously in several nude mice to select for the most robustly growing cell population. After having grown to a sufficient size after 2-3 weeks, a piece of about 2 mm^3 volume of the most suitable tumor was transplanted subcutaneously into the region of the thoracic mammary fat pads, an area ensuring a high degree of vascularization of the grafted tissue. […] During the course of the treatment, the weight of the animals and the size of the transplanted tumor was monitored three times a week. […] These doses are best determined separately for each individual mouse strain employed.
(§2) To establish a solid tumour 3×10^6 tumor cells suspended in 100 μl of serum free medium (RPMI) were inoculated subcutaneously into the region of the thoracic mammary fat pads of 5 Male NMRI(nu/nu) mice of 8-10 weeks of age. […] During the course of the treatment body weight changes and tumor growth were recorded three times a week. Growth curves were plotted together with standard deviations and the significance of differences was determined using an unpaired t-test in FIG. 11. […]

[1] = test system: MDA-MB-231 breast cancer cell line; test: Long-term growth inhibition, crystal violet staining; format: cell-based, human
Protocol: The human estrogen receptor and EGF receptor negative MDA-MB-231 (HTB 26) breast cancer cell line (obtained from ATCC, Rockville, USA) were cultured in McCoy's 5A medium containing L-glutamine, 2.2 g/l NaHCO3 and 5% fetal calf serum. Cells were maintained in a water saturated atmosphere (95% air/5% carbon dioxide) at 37° C. in 75-cm^2 culture flasks, and were serially passaged following trypsinization using 0.05% trypsin/0.02% EDTA.
(§3) For proliferation assays tumor cell suspensions (100 μl/well) were seeded into 96-well flat bottomed microtitration plates at a density of ca. 15 cells/microscopic field (magnification 320×). After 2-3 days the culture medium was removed by suction and replaced by fresh medium (200 μl/well) containing varying concentrations of the compound of the formula 1 or vehicle (0.5% DMSO). Compound 1 was added as […] concentrated feed solutions. On every plate 16 wells served as controls and 16 wells were used per concentration of 1. After various times of incubation the cells were fixed with glutardialdehyde and stored in a refrigerator. At the end of the assay all plates were processed simultaneously (staining with 0.02% aqueous crystal violet solution (100 μl/well). Excess dye was removed by rinsing the trays with water for 20 min. The stain bound by the cells was redissolved in 70% ethanol (180 μl/well) while shaking the microplates for about 3 hours. Absorbance (proportional to cell mass) was measured at 578 nm using a BIOTEK 309 Autoreader. The results (mean values±standard deviation) were plotted as growth curves.

NCI-60 panel cell lines = test: NCI-60 panel growth inhibition screen; format: cell-based; conditions: for GI50: nominal concentration
From the text: FIGS. 7a-h show the inhibitory potencies of compound 1 in the cell lines of the NCI panel from various cancers. The growth of cells treated with various concentrations of compound 1 was expressed in reference to untreated controls (100%) after 48 hr exposure. Negative growth values represent cell death. Actual concentrations of compound 1 are about two times lower than nominal due to well binding in the 96-well plate format.
FIG. 8 represents the GI50 (50% growth inhibition, cross-hatch bars) and TGI (total growth inhibition, solid bars) values of all cells in the NCI-60 panel in relation to the attainable free mouse plasma concentration of orally applied compound 1, corrected for the reduction in actual inhibitor concentration by well binding. The oncogenic mutation spectrum of the cell lines is presented at the bottom.
To further exemplify the breadth of anti-tumor activity of compounds 1-4 the NCI-60 panel was screened with compound 1. The spectrum of verified oncogenic driver mutations in these cell lines was recently elucidated to encompass mutations in raf, ras, CDKN2A (cdk inhibitor), p53, PI3K, PTEN, EGFR, APC, FLT3, RB1 among others. Cell lines generally have several of these mutations representative of stage III and IV cancers [Ikediobi et al., Mol. Cancer. Ther. 5, 2606-2612 (2006)]. […] The average concentration for total growth inhibition (TGI) was thus at 200 nM, i.e. about 10-times GI50. At sustained free plasma concentrations in vivo of about 200 nM, that can be achieved with practical forms of oral dosing and in the absence of special formulations, all cell lines would be inhibited by more than 50% without exception, and more than half would show no growth at all or would be killed (FIG. 8).

ACHN xenograft = test: Mouse xenograft model ACHN; format: in vivo; conditions: Kidney, CDKN2A; oral twice daily dosing
Protocol: as §1, §2

[2] = test system: U373 glioblastoma cell line; test: Long-term growth inhibition, crystal violet staining; format: cell-based, human; conditions: 10 nM, over a week
Protocol: as §3
The EGF-receptor independent U373 Human Glioblastoma cell line (obtained from ATCC, Rockville, USA) was cultured as above. Treatment with the compound of the formula 1 and analysis of growth inhibition was performed analogous to Example 3.

For `CNC(=O)[C@@]1(N)C[C@H]2O[C@]1(C)n1c3ccccc3c3c4c(c5c6ccccc6n2c5c31)C(=O)NC4` [Compound 1], the IC50 (PKA) was 300 nM, the “Mean % Inhibition” value (SK-MEL-5 xenograft) was 122% and the “N tumors with no/neg. growth” value (SK-MEL-5 xenograft) was 7 of 10. The “growth of MDA-MB-231 cells” value ([1]; 10 nM, 1 week of exposure) was “almost completely prevents the growth”, the “prolonged effect on growth after a single short exposure” value ([1]; MDA-MB-231, single exposure 1 to 6 hrs, 100 nM) was “sustained inhibition over at least one week” and the “anti-tumor activity compared with cis-platin” value ([1]; MDA-MB-231 growth) was “substantially more potent and efficacious”. For the same compound, the “anti-tumor activity compared with vinblastine” value ([1]; MDA-MB-231 growth) was “matches the activity of vinblastine”, the “average concentration for total growth inhibition (TGI)” value (NCI-60 panel cell lines; 48 hr exposure) was 200 nM and the “cell kill of HT29 cell line in vitro” value (NCI-60 panel cell lines; HT29, highest exposures) was “cannot be killed”. The “anti-proliferative activity across panel” value (NCI-60 panel cell lines; lung, colon, brain, skin, ovarian, kidney, prostate, breast cancer lines) was “Significant anti-proliferative activity was seen in all cell lines”, the GI50 (NCI-60 panel cell lines; 48 hr exposure, read-out: GI50 potency range across cell lines) was at most 150 nM and the GI50 (NCI-60 panel cell lines; 48 hr exposure, read-out: average 50% growth inhibition (GI50) across all cell lines) was 32 nM. For the same compound, the “Mean % Inhibition” value (ACHN xenograft) was 86%, the “N tumors with no/neg. growth” value (ACHN xenograft) was 5 of 10 and the “growth arrest of U373 cells” value [2] was “almost completely effective”.
